From patent US5473055A, “Polymer-bound paclitaxel derivatives” (Farmitalia Carlo Erba S.r.l., priority 1992, dated 1995)
Like-named read-outs stand apart in the source and are kept apart here.

Experiments:
[1] = test system: B16-F10 murine melanoma cells; assay: In vitro drug sensitivity assay; type: cell-based; conditions: 72 hrs incubation, cell counting, read-out: IC50 (dose causing 50% inhibition cell growth)
Description: Exponentially growing B16-F10 murine melanoma cells were seeded (2×10^4 /ml) in RPMI 1640 medium were supplemented with 10% heat-inactivated fetal calf serum and 2 mM glutamine in 24 well-plates (Costar). Scalar concentrations of tested compounds were added immediately after seeding. The inhibition of cell growth was evaluated by counting cells with a coulter counter after 72 hrs incubation. For each tested compound concentration triplicate cultures were used. The antiproliferative activity of the tested compounds was calculated from dose-response curves and espressed as IC50 (dose causing 50% inhibition cell growth in treated cultures relative to untreated controls).

Calf brain tubulin = assay: Microtubule assembly and disassembly assay; type: biochemical; conditions: percentage of repolymerisation induced after CaCl2 depolymerisation
Description: Calf brain tubulin was prepared by two cycles of assembly-disassembly (Shelanski M. L. Gaskin F. and Cantor C. R., Proc. Natl. Acad. Sci. U.S.A. 70, 765-768, 1973) and stored in liquid nitrogen in MAB (0.1M MES, 2.5 mM EGTA, 0.5 mM MgSO4, 0.1 mM EDTA, 0.1 mM DTT pH 6.4).
All the experiments were carried out on protein stored for less than 4 weeks.
Before each experiment, the tubulin was kept 30 min at 4° C.
Assembly was monitored by the method of Gaskin et al (Gaskin F., Cantor C. R. Shelanski M. L. J. Molec. Biol 89, 737-758, 1974). The cuvette (1 cm path) containing tubulin (1 mg/ml) and 1 mM GTP was shifted to 37° C. and continous turbidity measurements were made at 340 nm on Perkin-Elmer 557 Double Wavelength Double Beam Spectrophotometer equipped with an automatic recorder and a termostatically regulated sample chamber.
After 30 minutes 4 mM CaCl2 was added and depolymerisation was measured for 10 minutes as decreased turbidity. At regular intervals of 15 minutes scalar doses of the tested compounds were added and variations in the turbidity were monitored. Data are espressed as percentage of ripolymerisation induced by the tested compounds.

[2] = TOX determination in tumor-bearing mice; type: in vivo, C57B16 female mice; conditions: day 1, 5, 9
Description: (§1) The compound of example 6 was injected intravenously. Both compounds were administered at day 1, 5, 9 after tumor implantation.
TOX: number of mice which died for toxicity.
TOX determination was made when mice died before the control or when significant body weight loss and/or spleen and or/or liver size reduction were observed.

B16 F10 murine melanoma = assay: In vivo antitumor activity against B16 F10 murine melanoma; design: species or system C57B16 female mice
Description: The copolymer-paclitaxel prepared in Example 6 was tested in vivo against B16 F10 murine melanoma in comparison with paclitaxel.
C57B16 female mice were obtained from Charles River Italy.
Animals were 8 to 10 weeks old at the beginning of the experiment.
The murine melanoma B16F10 was used. A suspension of 10^5 tumor cells in 0.2 ml was injected subcutaneously in the flank of mice.
Tumor size was measured with caliper and tumor weight was calculated with the formula: [formula]
as §1
The dose of the polymer-conjugate is referred to the paclitaxel content.

Compound	IC50 ([1]; Mus musculus) [µM]	Tubulin Assembly % (Calf brain tubulin; 0.5 μM) [%]	Tubulin Assembly % (Calf brain tubulin; 5 μM) [%]	IC50 [1] [µM]	other results
CC(=O)OC1C(=O)C2(C)C(O)CC3OCC3(OC(C)=O)C2C(OC(=O)c2ccccc2)C2(O)CC(OC(=O)C(OC(=O)CNC(=O)C(CC(C)C)NC(=O)C(N)Cc3ccccc3)C(NC(=O)c3ccccc3)c3ccccc3)C(C)=C1C2(C)C (stereo not shown) [Example 3, 2'(phenylalanyl-leucyl-glycyl)paclitaxel]	23	46	86		
CC(=O)OC1C(=O)C2(C)C(OC(=O)CCN)CC3OCC3(OC(C)=O)C2C(OC(=O)c2ccccc2)C2(O)CC(OC(=O)C(O)C(NC(=O)c3ccccc3)c3ccccc3)C(C)=C1C2(C)C (stereo not shown) [Example 9, 7-(βalanyl)paclitaxel]	47	79	145		
CC(=O)O[C@H]1C(=O)[C@@]2(C)[C@H]([C@H](OC(=O)c3ccccc3)[C@]3(O)C[C@H](OC(=O)[C@H](O)[C@@H](NC(=O)c4ccccc4)c4ccccc4)C(C)=C1C3(C)C)[C@]1(OC(C)=O)CO[C@@H]1C[C@@H]2O [Paclitaxel]	39	41	96		Tox: number of mice which died for toxicity ([2]; 14.6 mg/Kg intraperitoneally): 0/10; Tox: number of mice which died for toxicity ([2]; 22 mg/Kg intraperitoneally): 0/10; Tox: number of mice which died for toxicity ([2]; 33 mg/Kg intraperitoneally): 1/7; Tumor Inhibition (%) (B16 F10 murine melanoma; 14.6 mg/Kg intraperitoneally, day 1, 5, 9 after tumor implantation): 53%; Tumor Inhibition (%) (B16 F10 murine melanoma; 22 mg/Kg intraperitoneally, day 1, 5, 9): 38%; Tumor Inhibition (%) (B16 F10 murine melanoma; 33 mg/Kg intraperitoneally, day 1, 5, 9): 92%; Appearance of the solution (Cremophor EL 50% and ethanol 50%, diluted with glucose 5% solution): slightly hazy and precipitates formation was observed after short time
Copolymer of 1-methacryloylamino-2-hydroxypropane,1-(methacryloyl-glycyl-phenylanyl-leucyl-glycyl)amino-2hydroxypropane and 2(methacryloyl-glycyl-phenylalanyl-leucyl-glycyl-βalanyl)paclitaxel [Example 6]		0	10	51	Tox: number of mice which died for toxicity ([2]; 14.6 mg/Kg (paclitaxel content) intravenously): 0/9; Tox: number of mice which died for toxicity ([2]; 22 mg/Kg (paclitaxel content) intravenously): 0/10; Tumor Inhibition (%) (B16 F10 murine melanoma; 14.6 mg/Kg (paclitaxel content) intravenously, day 1, 5, 9): 77%; Tumor Inhibition (%) (B16 F10 murine melanoma; 22 mg/Kg (paclitaxel content) intravenously, day 1, 5, 9): 79%; Dissolution in glucose 5% (glucose 5%): easily dissolved; Time the resulting solution was clear (solution in glucose 5%): more than 2 hours
Copolymer of 1-methacryloylamino-2-hydroxypropane, 1 (methacryloyl-glycyl-phenylalanyl-leucyl-glycyl)amino-2-hydroxypropane and 2'(methacryloyl-glycyl-phenylalanyl-leucyl-glycyl)paclitaxel [Example 1]		0	15	19	
Copolymer of 1-methacryloylamino-2-hydroxypropane, 1-(methacryloyl-glycyl)amino-2-hydroxypropane and 2'(methacryloyl-glycyl-phenylalanyl-leucyl-glycyl)paclitaxel [Example 4]		0	10	11	
